Read-outs that look alike come from different tables or passages of the source.
Experiments:
HRV3C = HRV3C (Human rhinovirus 14, UniProt P03303); test: HRV3C protease assay (duplex, SAMDI-MS); type: biochemical, HRV; details: HRV3C, 30 mins preincubation, read-out: HRV IC50
In short: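 Compounds are preincubated 30 min with the protease pair before substrate addition, and cleavage proceeds 30 min at room temperature. Product peptides are measured by SAMDI-MS relative to internal standards, with IC50 obtained from a four-parameter fit.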

[1] = system: human beta-coronavirus OC43; test: microbe, parasite or virus in culture; type: cell-based; details: Betacoronavirus 1, OC43, HeLa, 144 h, OC43 in HeLa cells, 6 days at 33° C., read-out: EC50
[2] = Cytotoxicity plates without OC43 virus (cell-titer-glo); type: cell-based, human; details: human; HeLa cells without OC43 virus, class symbols
In short: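 Run as a virus-free counterpart of the OC43 cytopathic-effect assay. Attached HeLa cells received compound dilutions in EMEM with 2% FBS and were kept 6 days at 33 °C. Cell viability was then measured by CellTiter-Glo luminescence.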

[3] = system: SARS-CoV-2-GHB-03021/2020; test: SARS-CoV-2 Infection Model in Huh7 Cells; type: cell-based; details: Severe acute respiratory syndrome coronavirus 2, Huh-7, 96 h, SARS-CoV-2, day 4 p.i., MTS
[4] = system: SARS-CoV-2-GHB-03021/2020; test: microbe, parasite or virus in culture; type: cell-based; details: Severe acute respiratory syndrome coronavirus 2, Vero C1008, 96 h; read-out: VeroE6 + CP (EC50)
human cathepsin L = target: T1, human cathepsin L (Homo sapiens, UniProt P07711); test: cathepsin L assay; type: biochemical; details: 10 pM human cathepsin L, Z-FR-AMC 2 μM, class symbols
T1 construct: purchased R&D Systems
In short: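 Reactions began by adding 2 μM (final) Z-FR-AMC substrate to 10 pM human cathepsin L that had been preincubated 30 min with inhibitor. Kinetic AMC fluorescence at 355/460 nm over 30 min at 2-min intervals; four-parameter fitting gave IC50 values.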

in vitro [5] = details: human
in vitro [6] = details: African green monkey, VeroE6 + CP (CC50), Vero E6-eGFP cells with CP-100356, absence of virus, MTS
3CLpro = 3CLpro (Severe acute respiratory syndrome coronavirus 2, UniProt P0DTD1); test: SARS-CoV-2 3CLpro protease assay (duplex, SAMDI-MS); type: biochemical; set-up: For the duplex assay, 3CLpro and HRV3C was added; details: 3CLpro, 30 mins preincubation, read-out: SARS-Cov-2 IC50

Row | SMILES | IC50 (HRV3C; class symbols) | EC50 ([1]; bound) | CC50 at 6 days [2] | EC50 ([3]; class symbols) | EC50 [4] | IC50 (human cathepsin L) | CC50 (in vitro [5]) | CC50 (in vitro [6]; numeric bounds) | IC50 (3CLpro; class symbols) | IC50 (HRV3C; bound) | EC50 ([1]; class symbols) | EC50 ([3]; numeric bounds) | IC50 (3CLpro; bound) | CC50 (in vitro [6]; class symbols)
1 | COc1cccc2[nH]c(C(=O)N3C[C@@H]4CCC[C@@H]4[C@H]3C(=O)N[C@@H](C[C@@H]3CCNC3=O)C(=O)C(=O)NCCO)cc12 [Compound 107, (1S, 3aR, 6aS)—N—((S)-4-((2-hydroxyethyl)amino)-3,4-dioxo-1-((S)-2-oxopyrrolidin-3-yl)butan-2-yl)-2-(4-methoxy-1H-indole-2-carbonyl)octahydrocyclopenta[c]pyrrole-1-carboxamide] | 0.2 to 2 µM | > 10 µM | > 10 µM | 10 to 100 µM | 10 to 100 µM | ≥ 10 µM | > 50 µM | > 100 µM | < 0.02 µM | – | – | – | – | –
2 | O=C1NCC[C@H]1C[C@H](NC(=O)[C@@H]1[C@H]2CCC[C@H]2CN1C(=O)c1cc2c3c(ccc2[nH]1)CCO3)C(=O)CO [Compound 108, (1S,3aR,6aS)-2-{2H,3H,6H-furo[2,3-e]indole-7-carbonyl}-N-[(2S)-4-hydroxy-3-oxo-1-[(3S)-2-oxopyrrolidin-3-yl]butan-2-yl]-hexahydro-1H-cyclopenta[c]pyrrole-1-carboxamide] | – | – | > 10 µM | 10 to 100 µM | 1 to 10 µM | ≥ 10 µM | > 50 µM | > 50 µM | 0.02 to 0.2 µM | > 10 µM | 0.1 to 1 µM | – | – | –
3 | COc1cccc2[nH]c(C(=O)N3C[C@@H]4CCC[C@@H]4[C@H]3C(=O)N[C@@H](C[C@@H]3CCNC3=O)C(=O)C(=O)N(C)C)cc12 [Compound 110] | – | > 10 µM | > 10 µM | – | > 50 µM | ≥ 10 µM | > 50 µM | > 50 µM | – | > 10 µM | – | > 50 µM | > 10 µM | –
4 | O=C(NCc1ccccc1)C(=O)[C@H](Cc1cccnc1)NC(=O)[C@@H]1CC2(CC2)CN1C(=O)c1cc2ccccc2[nH]1 [Compound 111, (S)—N—((S)-4-(benzylamino)-3,4-dioxo-1-(pyridin-3-yl)butan-2-yl)-5-(1H-indole-2-carbonyl)-5-azaspiro[2.4]heptane-6-carboxamide] | – | – | > 10 µM | 1 to 10 µM | > 100 µM | < 0.1 µM | > 10 µM | > 100 µM | – | > 10 µM | 10 to 100 µM | – | > 10 µM | –
5 | COc1cccc2[nH]c(C(=O)N3C[C@@H]4CCC[C@@H]4[C@H]3C(=O)N[C@@H](CN3CC[C@H](O)C3=O)C(=O)C(=O)NC3CC3)cc12 [Compound 115, (1S,3aR,6aS)—N—((S)-4-(cyclopropylamino)-1-((S)-3-hydroxy-2-oxopyrrolidin-1-yl)-3,4-dioxobutan-2-yl)-2-(4-methoxy-1H-indole-2-carbonyl)octahydrocyclopenta[c]pyrrole-1-carboxamide] | – | > 10 µM | > 10 µM | – | > 50 µM | ≥ 10 µM | > 10 µM | > 50 µM | 2 to 20 µM | > 10 µM | – | > 50 µM | – | –
6 | O=C1NCC[C@H]1C[C@H](NC(=O)[C@@H]1[C@H]2CCC[C@H]2CN1C(=O)c1cc2c(Cl)ccc(C(F)(F)F)c2[nH]1)C(=O)CO [Compound 117, (1S,3aR,6aS)-2-[4-chloro-7-(trifluoromethyl)-1H-indole-2-carbonyl]-N-[(2S)-4-hydroxy-3-oxo-1-[(3S)-2-oxopyrrolidin-3-yl]butan-2-yl]-hexahydro-1H-cyclopenta[c]pyrrole-1-carboxamide] | – | – | > 10 µM | < 1 µM | < 1 µM | ≥ 10 µM | > 50 µM | > 50 µM | 0.02 to 0.2 µM | > 10 µM | 0.1 to 1 µM | – | – | –
7 | COc1cccc2[nH]c(C(=O)N3C[C@@H]4CCC[C@@H]4[C@H]3C(=O)N[C@@H](CN3CCCNC3=O)C(=O)C(=O)NC3CC3)cc12 [Compound 118] | – | > 10 µM | > 10 µM | – | > 50 µM | ≥ 10 µM | > 10 µM | > 50 µM | 2 to 20 µM | > 10 µM | – | > 50 µM | – | –
8 | COc1cccc2[nH]c(C(=O)N3C[C@@H]4CCC[C@@H]4[C@H]3C(=O)N[C@@H](Cn3cc[nH]c3=O)C(=O)C(=O)NC3CC3)cc12 [Compound 119] | – | > 10 µM | > 10 µM | – | > 50 µM | ≥ 10 µM | > 50 µM | > 50 µM | 0.2 to 2 µM | > 10 µM | – | > 50 µM | – | –
9 | O=C1NCC[C@H]1C[C@H](NC(=O)[C@@H]1[C@H]2CCC[C@H]2CN1C(=O)c1cc2c(Cl)cc(-c3ccccc3)cc2[nH]1)C(=O)CO [Compound 120, (1S,3aR,6aS)-2-(4-chloro-6-phenyl-1H-indole-2-carbonyl)-N-[(2S)-4-hydroxy-3-oxo-1-[(3S)-2-oxopyrrolidin-3-yl]butan-2-yl]-hexahydro-1H-cyclopenta[c]pyrrole-1-carboxamide] | – | – | > 10 µM | < 1 µM | < 1 µM | ≥ 10 µM | 1 to 10 µM | – | < 0.02 µM | > 10 µM | < 0.1 µM | – | – | > 10 µM
10 | O=C1NCC[C@H]1C[C@H](NC(=O)[C@@H]1[C@H]2CCC[C@H]2CN1C(=O)c1cc2c(Cl)c(F)c(Cl)cc2[nH]1)C(=O)CO [Compound 121, (1S,3aR,6aS)-2-(4,6-dichloro-5-fluoro-1H-indole-2-carbonyl)-N—((S)-4-hydroxy-3-oxo-1-((S)-2-oxopyrrolidin-3-yl)butan-2-yl)octahydrocyclopenta[c]pyrrole-1-carboxamide] | – | – | > 10 µM | < 1 µM | 1 to 10 µM | ≥ 10 µM | > 50 µM | > 50 µM | 0.02 to 0.2 µM | > 10 µM | < 0.1 µM | – | – | –
11 | O=C1NCC[C@H]1C[C@H](NC(=O)[C@@H]1[C@H]2CCC[C@H]2CN1C(=O)c1cc2c(Cl)c(F)cc(Cl)c2[nH]1)C(=O)CO [Compound 122, (1S,3aR,6aS)-2-(4,7-dichloro-5-fluoro-1H-indole-2-carbonyl)-N-[(2S)-4-hydroxy-3-oxo-1-[(3S)-2-oxopyrrolidin-3-yl]butan-2-yl]-hexahydro-1H-cyclopenta[c]pyrrole-1-carboxamide] | – | – | > 10 µM | < 1 µM | < 1 µM | ≥ 10 µM | > 50 µM | > 50 µM | 0.02 to 0.2 µM | > 10 µM | < 0.1 µM | – | – | –
12 | O=C1NCC[C@H]1C[C@H](NC(=O)[C@@H]1[C@H]2CCC[C@H]2CN1C(=O)c1cc2c(Oc3ccccc3)cccc2[nH]1)C(=O)CO [Compound 123, (1S,3aR,6aS)—N-[(2S)-4-hydroxy-3-oxo-1-[(3S)-2-oxopyrrolidin-3-yl]butan-2-yl]-2-(4-phenoxy-1H-indole-2-carbonyl)-hexahydro-1H-cyclopenta[c]pyrrole-1-carboxamide] | – | – | > 10 µM | 1 to 10 µM | 1 to 10 µM | ≥ 10 µM | > 50 µM | > 50 µM | 0.02 to 0.2 µM | > 10 µM | 0.1 to 1 µM | – | – | –
13 | COc1ccc(Br)c2[nH]c(C(=O)N3C[C@@H]4CCC[C@@H]4[C@H]3C(=O)N[C@@H](C[C@@H]3CCNC3=O)C(=O)CO)cc12 [Compound 124, (1S,3aR,6aS)-2-(7-bromo-4-methoxy-1H-indole-2-carbonyl)-N-[(2S)-4-hydroxy-3-oxo-1-[(3S)-2-oxopyrrolidin-3-yl]butan-2-yl]-hexahydro-1H-cyclopenta[c]pyrrole-1-carboxamide] | 2 to 20 µM | – | > 10 µM | < 1 µM | < 1 µM | ≥ 10 µM | > 50 µM | > 50 µM | < 0.02 µM | – | 0.1 to 1 µM | – | – | –

— US11952365B2, “Anti-viral compounds” (Aligos Therapeutics, Inc., priority 2020, dated 2024)
